Measurements as given in US10597388B2, “Pyridazinone herbicides” (FMC CORPORATION, priority 2014, dated 2020).

How the values were obtained:
Type in all cases: in vivo
[1] = tested on: corn (Zea mays); assay: Test C greenhouse herbicide test, pre- and postemergence
How it was run: (§1)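 Greenhouse pots; pre-em on seeded loam:sand blend, post-em on 2–18 cm plants (1–4 leaf) in sphagnum peat/vermiculite medium. Formulation: non-phytotoxic solvent + surfactant. Read-out: visual % control (0–100) vs controls at 13–15 d.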

[2] = tested on: johnsongrass (Sorghum halepense); assay: as above
How it was run: as §1

[3] = tested on: waterhemp (common waterhemp, Amaranthus rudis); assay: as above
How it was run: as §1

[4] = tested on: oilseed rape (Brassica napus); assay: as above
How it was run: as §1

[5] = tested on: foxtail, giant (giant foxtail, Setaria faberii); assay: as above
How it was run: as §1

[6] = tested on: crabgrass, large (large crabgrass, Digitaria sanguinalis); assay: as above
How it was run: as §1

[7] = tested on: wheat (winter wheat, Triticum aestivum); assay: as above
How it was run: as §1

[8] = tested on: lambsquarters (Chenopodium album); assay: as above
How it was run: as §1

[9] = tested on: morningglory (Ipomoea coccinea); assay: as above
How it was run: as §1

[10] = tested on: barnyardgrass (Echinochloa crus-galli); assay: Test A greenhouse herbicide test, pre- and postemergence
How it was run: (§2)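 Visual injury ratings, 0 (no effect) to 100 (complete control), versus untreated plants after roughly 10 d in a greenhouse. Compounds, formulated in a surfactant-containing non-phytotoxic solvent, were sprayed on loam–sand soil after sowing (pre) or on one- to two-leaf plants 2–10 cm tall (post).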

[11] = tested on: kochia (Kochia scoparia); assay: as above
How it was run: as §2

[12] = Postemergence, 31 g ai/ha, scale 0 to 100 (0 no effect, 100 complete control)
[13] = Postemergence, 62 g ai/ha, 0 to 100 scale (0 no effect, 100 complete control)
[14] = Postemergence, 250 g ai/ha, scale 0 to 100, 0 no effect, 100 complete control, 13 to 15 d
[15] = Preemergence, 31 g ai/ha, scale 0 to 100, 0 is no effect, 100 is complete control
[16] = Preemergence, 62 g ai/ha, scale 0 to 100, 0 is no effect, 100 is complete control
[17] = Preemergence, 125 g ai/ha, scale 0 to 100, 0 is no effect, 100 is complete control
[18] = Preemergence, 250 g ai/ha, scale 0 to 100, 0 no effect, 100 complete control
[19] = postemergence, 125 g ai/ha, scale 0 to 100, 0 no effect, 100 complete control
[20] = Postemergence, 125 g ai/ha, 0 to 100 scale where 0 is no effect and 100 is complete control
[21] = Postemergence, 500 g ai/ha, visual rating after approx. 10 d, 0 to 100 scale (0 no effect, 100 complete control)
[22] = Preemergence, 125 g ai/ha, 0 to 100 scale where 0 is no effect and 100 is complete control
[23] = Preemergence, 500 g ai/ha, 0 to 100 scale where 0 is no effect and 100 is complete control
[24] = Postemergence, 250 g ai/ha, scale 0 to 100, 0 is no effect, 100 is complete control
[25] = Postemergence, 125 g ai/ha, 0 to 100 scale, 0 no effect, 100 complete control
[26] = Preemergence, 125 g ai/ha, visual injury rating, 0 to 100 scale (0 no effect, 100 complete control), approx. 10 d

## Cc1nn(C)c(=O)c(-c2ccc(Cl)c3ccccc23)c1O [Compound 139]
[1]; [12]
  Plant response rating, Corn: 5
[1]; [13]
  Corn plant response rating: 0
[1]; [14]
  Plant response rating, Corn: 15
[1]; [15]
  Plant response rating, Corn: 0
[1]; [16]
  Plant response rating, Corn: 0
[1]; [17]
  Plant response rating, Corn: 10
[1]; [18]
  Corn plant response rating: 15
[1]; [19]
  Corn plant response rating: 15
[2]; [12]
  Plant response rating, Johnsongrass: 5
[2]; [13]
  Johnsongrass plant response rating: 5
[2]; [14]
  Plant response rating, Johnsongrass: 25
[2]; [15]
  Plant response rating, Johnsongrass: 5
[2]; [16]
  Plant response rating, Johnsongrass: 35
[2]; [17]
  Plant response rating, Johnsongrass: 35
[2]; [18]
  Johnsongrass plant response rating: 25
[2]; [19]
  Johnsongrass plant response rating: 15
[3]; [12]
  Plant response rating, Waterhemp: 98
[3]; [13]
  Waterhemp plant response rating: 100
[3]; [14]
  Plant response rating, Waterhemp: 100
[3]; [15]
  Plant response rating, Waterhemp: 100
[3]; [16]
  Plant response rating, Waterhemp: 100
[3]; [17]
  Plant response rating, Waterhemp: 100
[3]; [18]
  Waterhemp plant response rating: 100
[3]; [19]
  Waterhemp plant response rating: 100
[4]; [12]
  Plant response rating, Oilseed Rape: 95
[4]; [13]
  Oilseed Rape plant response rating: 95
[4]; [14]
  Plant response rating, Oilseed Rape: 95
[4]; [15]
  Plant response rating, Oilseed Rape: 20
[4]; [16]
  Plant response rating, Oilseed Rape: 98
[4]; [17]
  Plant response rating, Oilseed Rape: 98
[4]; [18]
  Oilseed Rape plant response rating: 100
[4]; [19]
  Oilseed Rape plant response rating: 98
[5]; [12]
  Plant response rating, Foxtail, Giant: 20
[5]; [13]
  Foxtail, Giant plant response rating: 30
[5]; [14]
  Plant response rating, Foxtail, Giant: 60
[5]; [15]
  Plant response rating, Foxtail, Giant: 35
[5]; [16]
  Plant response rating, Foxtail, Giant: 65
[5]; [17]
  Plant response rating, Foxtail, Giant: 85
[5]; [18]
  Foxtail, Giant plant response rating: 95
[5]; [19]
  Foxtail, Giant plant response rating: 30
[6]; [12]
  Plant response rating, Crabgrass, Large: 20
[6]; [13]
  Crabgrass, Large plant response rating: 10
[6]; [14]
  Plant response rating, Crabgrass, Large: 40
[6]; [15]
  Plant response rating, Crabgrass, Large: 5
[6]; [16]
  Plant response rating, Crabgrass, Large: 30
[6]; [17]
  Plant response rating, Crabgrass, Large: 20
[6]; [18]
  Crabgrass, Large plant response rating: 50
[6]; [19]
  Crabgrass, Large plant response rating: 30
[7]; [12]
  Plant response rating, Wheat: 45
[7]; [13]
  Wheat plant response rating: 55
[7]; [14]
  Plant response rating, Wheat: 90
[7]; [15]
  Plant response rating, Wheat: 0
[7]; [16]
  Plant response rating, Wheat: 10
[7]; [17]
  Plant response rating, Wheat: 15
[7]; [18]
  Wheat plant response rating: 10
[7]; [19]
  Wheat plant response rating: 60
[8]; [12]
  Plant response rating, Lambsquarters: 98
[8]; [13]
  Lambsquarters plant response rating: 95
[8]; [14]
  Plant response rating, Lambsquarters: 100
[8]; [15]
  Plant response rating, Lambsquarters: 100
[8]; [16]
  Plant response rating, Lambsquarters: 90
[8]; [17]
  Plant response rating, Lambsquarters: 95
[8]; [18]
  Lambsquarters plant response rating: 98
[8]; [19]
  Lambsquarters plant response rating: 100
[9]; [12]
  Plant response rating, Morningglory: 98
[9]; [13]
  Morningglory plant response rating: 100
[9]; [14]
  Plant response rating, Morningglory: 100
[9]; [15]
  Plant response rating, Morningglory: 85
[9]; [16]
  Plant response rating, Morningglory: 90
[9]; [17]
  Plant response rating, Morningglory: 95
[9]; [18]
  Morningglory plant response rating: 98
[9]; [19]
  Morningglory plant response rating: 100
[10]; [20]
  Plant response rating, Barnyardgrass: 20
[10]; [21]
  Plant response rating, Barnyardgrass: 100
[10]; [22]
  Barnyardgrass plant response rating: 20
[10]; [23]
  Plant response rating, Barnyardgrass: 100
[11]; [20]
  Plant response rating, Kochia: 100
[11]; [21]
  Plant response rating, Kochia: 100
[11]; [22]
  Kochia plant response rating: 100
[11]; [23]
  Plant response rating, Kochia: 100

## Cc1nn(C)c(=O)c(-c2c([N+](=O)[O-])ccc3ccccc23)c1O [Compound 165]
[1]; [12]
  Plant response rating, Corn: 0
[1]; [13]
  Corn plant response rating: 0
[1]; [24]
  Plant response rating, Corn: 5
[1]; [19]
  Corn plant response rating: 0
[2]; [12]
  Plant response rating, Johnsongrass: 0
[2]; [13]
  Johnsongrass plant response rating: 5
[2]; [24]
  Plant response rating, Johnsongrass: 15
[2]; [19]
  Johnsongrass plant response rating: 10
[3]; [12]
  Plant response rating, Waterhemp: 65
[3]; [13]
  Waterhemp plant response rating: 70
[3]; [24]
  Plant response rating, Waterhemp: 75
[3]; [19]
  Waterhemp plant response rating: 75
[4]; [12]
  Plant response rating, Oilseed Rape: 0
[4]; [13]
  Oilseed Rape plant response rating: 0
[4]; [24]
  Plant response rating, Oilseed Rape: 5
[4]; [19]
  Oilseed Rape plant response rating: 0
[5]; [12]
  Plant response rating, Foxtail, Giant: 0
[5]; [13]
  Foxtail, Giant plant response rating: 5
[5]; [24]
  Plant response rating, Foxtail, Giant: 25
[5]; [19]
  Foxtail, Giant plant response rating: 15
[6]; [12]
  Plant response rating, Crabgrass, Large: 0
[6]; [13]
  Crabgrass, Large plant response rating: 5
[6]; [24]
  Plant response rating, Crabgrass, Large: 20
[6]; [19]
  Crabgrass, Large plant response rating: 20
[7]; [12]
  Plant response rating, Wheat: 5
[7]; [13]
  Wheat plant response rating: 5
[7]; [24]
  Plant response rating, Wheat: 15
[7]; [19]
  Wheat plant response rating: 10
[8]; [12]
  Plant response rating, Lambsquarters: 70
[8]; [13]
  Lambsquarters plant response rating: 75
[8]; [24]
  Plant response rating, Lambsquarters: 98
[8]; [19]
  Lambsquarters plant response rating: 85
[9]; [12]
  Plant response rating, Morningglory: 75
[9]; [13]
  Morningglory plant response rating: 70
[9]; [24]
  Plant response rating, Morningglory: 95
[9]; [19]
  Morningglory plant response rating: 85
[10]; [25]
  Plant response rating, Barnyardgrass: 20
[10]; [21]
  Plant response rating, Barnyardgrass: 30
[10]; [26]
  Plant response rating, Barnyardgrass: 10
[10]; [23]
  Plant response rating, Barnyardgrass: 30
[11]; [25]
  Plant response rating, Kochia: 60
[11]; [21]
  Plant response rating, Kochia: 90
[11]; [26]
  Plant response rating, Kochia: 60
[11]; [23]
  Plant response rating, Kochia: 100
